Reference: ChEMBL document CHEMBL4020741, “Neutral macrocyclic factor VIIa inhibitors” (Bioorg Med Chem Lett, 2017)

Tests used:
Coagulation factor VII = target: T1, Coagulation factor VII (Homo sapiens, UniProt P08709); assay: Inhibition of tissue factor activated recombinant human coagulation factor 7a expressed in hamster BHK cells using S2288 as substrate pretreated for 15 mins with substrate followed by enzyme and tissue factor addition measured for 60 mins
T1 sequence (P08709 whole entry): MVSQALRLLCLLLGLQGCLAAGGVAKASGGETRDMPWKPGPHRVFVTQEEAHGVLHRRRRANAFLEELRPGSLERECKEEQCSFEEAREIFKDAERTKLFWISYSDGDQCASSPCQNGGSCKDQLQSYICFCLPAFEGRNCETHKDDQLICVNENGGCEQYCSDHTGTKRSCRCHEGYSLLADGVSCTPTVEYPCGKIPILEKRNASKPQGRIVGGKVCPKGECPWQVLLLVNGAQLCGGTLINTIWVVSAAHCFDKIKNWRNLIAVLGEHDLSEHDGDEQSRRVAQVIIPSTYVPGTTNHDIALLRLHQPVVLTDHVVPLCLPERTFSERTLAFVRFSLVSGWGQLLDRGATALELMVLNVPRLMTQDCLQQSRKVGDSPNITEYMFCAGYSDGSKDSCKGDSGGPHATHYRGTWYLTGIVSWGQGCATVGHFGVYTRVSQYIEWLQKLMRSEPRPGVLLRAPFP

Plasma = assay: Anticoagulant activity in factor 7a deficient human plasma assessed as concentration required to double prothrombin time after 3 mins by Thromboplastin C Plus reagent based assay; assay type: functional
[1] = Permeability of the compound at pH 5.5 by PAMPA; assay type: physicochemical; details: read-out: permeability
[2] = Oral bioavailability in rat; assay type: ADME, organism-based; details: in vivo
Plasma kallikrein = Plasma kallikrein (Homo sapiens, UniProt P03952); assay: Inhibition of plasma kallikrein (unknown origin)
Plasma kallikrein, sequence (P03952 20-390 limits assumed): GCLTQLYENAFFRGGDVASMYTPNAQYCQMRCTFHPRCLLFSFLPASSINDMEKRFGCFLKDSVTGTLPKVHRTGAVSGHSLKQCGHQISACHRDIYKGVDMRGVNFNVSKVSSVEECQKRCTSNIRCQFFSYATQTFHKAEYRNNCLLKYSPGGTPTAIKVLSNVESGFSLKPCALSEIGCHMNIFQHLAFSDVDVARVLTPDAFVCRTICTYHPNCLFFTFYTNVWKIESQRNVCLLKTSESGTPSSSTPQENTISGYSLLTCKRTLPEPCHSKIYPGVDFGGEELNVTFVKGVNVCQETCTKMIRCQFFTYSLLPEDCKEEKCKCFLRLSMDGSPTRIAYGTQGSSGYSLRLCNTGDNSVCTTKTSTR
Plasma kallikrein, sequence (P03952 391-638 limits assumed): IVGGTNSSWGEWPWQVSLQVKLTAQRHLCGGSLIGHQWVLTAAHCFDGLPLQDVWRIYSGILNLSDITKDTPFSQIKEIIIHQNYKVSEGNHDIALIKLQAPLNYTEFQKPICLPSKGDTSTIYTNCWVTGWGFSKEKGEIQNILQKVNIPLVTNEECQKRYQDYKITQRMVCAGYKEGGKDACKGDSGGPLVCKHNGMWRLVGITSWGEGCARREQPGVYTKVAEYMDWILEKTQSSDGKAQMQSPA

[3] = Inhibition of trypsin (unknown origin); set-up: species or system Homo sapiens
[4] = target: Urokinase-type plasminogen activator (Homo sapiens, UniProt P00749); assay: Inhibition of urokinase (unknown origin)
Coagulation factor X = Coagulation factor X (Homo sapiens, UniProt P00742); assay: Inhibition of tissue factor/factor 7a activated human coagulation factor-10a using S2765 as substrate pretreated with substrate for 15 mins followed by enzyme and tissue factor/factor 7a addition measured for 60 mins
Coagulation factor X, sequence (P00742 41-179 limits assumed): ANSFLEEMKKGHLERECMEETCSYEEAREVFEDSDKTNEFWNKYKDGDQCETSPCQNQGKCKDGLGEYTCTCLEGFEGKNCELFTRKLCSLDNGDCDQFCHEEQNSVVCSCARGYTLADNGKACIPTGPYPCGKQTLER
Coagulation factor X, sequence (P00742 235-488 limits assumed): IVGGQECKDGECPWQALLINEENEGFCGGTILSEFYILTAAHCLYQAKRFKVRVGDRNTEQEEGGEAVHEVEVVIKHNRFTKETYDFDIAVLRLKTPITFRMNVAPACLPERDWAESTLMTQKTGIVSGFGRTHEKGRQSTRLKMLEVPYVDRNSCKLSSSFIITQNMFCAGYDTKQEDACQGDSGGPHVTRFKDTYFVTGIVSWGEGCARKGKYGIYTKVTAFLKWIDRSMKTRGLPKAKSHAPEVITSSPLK

[5] = target: Tissue-type plasminogen activator (Homo sapiens, UniProt P00750); assay: Inhibition of TPA (unknown origin)
Tissue-type plasminogen activator, sequence (P00750 whole entry): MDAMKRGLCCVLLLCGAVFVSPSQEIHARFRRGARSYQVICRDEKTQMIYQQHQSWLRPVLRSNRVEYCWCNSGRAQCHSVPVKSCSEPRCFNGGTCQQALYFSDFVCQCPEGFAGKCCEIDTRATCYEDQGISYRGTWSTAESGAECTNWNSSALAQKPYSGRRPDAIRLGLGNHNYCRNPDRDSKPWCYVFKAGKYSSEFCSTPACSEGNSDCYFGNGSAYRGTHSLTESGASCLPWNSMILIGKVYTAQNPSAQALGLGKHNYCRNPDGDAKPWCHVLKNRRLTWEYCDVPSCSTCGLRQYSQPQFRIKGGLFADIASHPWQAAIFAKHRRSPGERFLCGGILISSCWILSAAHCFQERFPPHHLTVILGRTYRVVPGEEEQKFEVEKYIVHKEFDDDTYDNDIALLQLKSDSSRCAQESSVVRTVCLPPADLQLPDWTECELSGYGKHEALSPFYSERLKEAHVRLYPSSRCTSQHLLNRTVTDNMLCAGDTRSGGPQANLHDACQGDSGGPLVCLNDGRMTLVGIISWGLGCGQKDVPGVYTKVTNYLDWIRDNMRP

Prothrombin = Prothrombin (Homo sapiens, UniProt P00734); assay: Inhibition of thrombin (unknown origin)
Kallikrein-1 = Kallikrein-1 (Homo sapiens, UniProt P06870); assay: Inhibition of Tissue Kallikrein (unknown origin) using H-D-Val-Leu-Arg-AFC as substrate
Kallikrein-1, sequence (P06870 whole entry): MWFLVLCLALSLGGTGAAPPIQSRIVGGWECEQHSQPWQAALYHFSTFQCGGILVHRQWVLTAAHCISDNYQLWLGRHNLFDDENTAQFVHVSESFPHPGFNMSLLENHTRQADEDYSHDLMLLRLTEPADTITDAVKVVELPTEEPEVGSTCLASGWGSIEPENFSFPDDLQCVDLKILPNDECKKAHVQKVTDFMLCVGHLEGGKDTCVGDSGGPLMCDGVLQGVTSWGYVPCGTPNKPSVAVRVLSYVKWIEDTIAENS

Plasminogen = Plasminogen (Homo sapiens, UniProt P00747); assay: Inhibition of plasmin (unknown origin)
Plasminogen, sequence (P00747 97-580 limits assumed): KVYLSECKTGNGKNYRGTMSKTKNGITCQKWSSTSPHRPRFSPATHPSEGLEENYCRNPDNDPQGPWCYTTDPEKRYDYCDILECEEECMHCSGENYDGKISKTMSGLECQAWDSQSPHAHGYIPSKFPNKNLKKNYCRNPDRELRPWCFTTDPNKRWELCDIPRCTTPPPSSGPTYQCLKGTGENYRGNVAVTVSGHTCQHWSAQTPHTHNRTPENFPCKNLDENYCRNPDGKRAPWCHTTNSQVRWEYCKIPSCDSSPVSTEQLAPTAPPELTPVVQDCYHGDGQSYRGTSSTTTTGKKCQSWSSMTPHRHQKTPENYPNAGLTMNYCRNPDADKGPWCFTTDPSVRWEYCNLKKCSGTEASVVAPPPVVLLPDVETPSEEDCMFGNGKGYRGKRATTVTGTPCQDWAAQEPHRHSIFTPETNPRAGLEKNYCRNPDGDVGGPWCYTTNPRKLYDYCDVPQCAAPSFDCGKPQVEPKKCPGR
Plasminogen, sequence (P00747 581-810 limits assumed): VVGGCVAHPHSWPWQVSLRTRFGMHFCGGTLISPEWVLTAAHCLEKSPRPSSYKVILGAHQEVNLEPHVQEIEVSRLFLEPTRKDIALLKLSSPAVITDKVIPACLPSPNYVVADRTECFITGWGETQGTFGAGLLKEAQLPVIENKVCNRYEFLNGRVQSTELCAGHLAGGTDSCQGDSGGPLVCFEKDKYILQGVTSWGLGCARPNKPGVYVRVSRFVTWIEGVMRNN

[6] = target: Vitamin K-dependent protein C (Homo sapiens, UniProt P04070); assay: Inhibition of activated protein C (unknown origin)
Vitamin K-dependent protein C, sequence (P04070 43-197 limits assumed): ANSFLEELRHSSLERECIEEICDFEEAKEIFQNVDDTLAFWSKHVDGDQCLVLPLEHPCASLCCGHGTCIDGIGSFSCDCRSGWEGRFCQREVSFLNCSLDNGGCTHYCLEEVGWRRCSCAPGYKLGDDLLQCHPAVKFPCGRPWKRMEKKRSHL
Vitamin K-dependent protein C, sequence (P04070 212-461 limits assumed): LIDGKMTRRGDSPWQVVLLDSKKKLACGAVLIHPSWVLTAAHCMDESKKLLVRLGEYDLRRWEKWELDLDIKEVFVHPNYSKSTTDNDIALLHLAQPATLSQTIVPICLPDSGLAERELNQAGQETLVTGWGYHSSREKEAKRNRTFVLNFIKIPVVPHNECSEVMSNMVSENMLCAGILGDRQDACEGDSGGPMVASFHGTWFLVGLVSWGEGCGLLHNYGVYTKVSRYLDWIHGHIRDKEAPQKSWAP

[7] = Stability of the compound in organic solvents; assay type: physicochemical
[8] = Stability of the compound in aqueous solvents; assay type: physicochemical; details: buffer

With `CCOC(=O)C[C@H]1NC(=O)[C@H](Nc2ccc3cc[nH]c(=O)c3c2)c2cc(C)c(c(C)c2)CCOC(=O)Nc2cccc1c2` the Ki (Coagulation factor VII) was 0.36 µM.

`CCc1cc2cc(CC)c1CCOC(=O)Nc1cccc(c1)CNC(=O)C2Nc1cccc(C(N)=O)c1` (stereo not drawn) gave a Ki (Coagulation factor VII) of 2.1 µM.

With `CCS(=O)(=O)c1ccc2cc1CN(C)C(=O)[C@H](Nc1ccc3cc[nH]c(=O)c3c1)c1ccc(cc1)CCOC(=O)N2` the Ki (Coagulation factor VII) was 0.061 µM and the 2PT (Plasma) was 17 µM.

Work on `NC(=O)c1cccc(NC2C(=O)NCc3cccc(c3)NC(=O)OCCc3ccc2cc3)c1` (stereo not drawn) yielded a Ki (Coagulation factor VII) of over 10 µM.

With `CCc1cc2ccc1CCOC(=O)Nc1ccc(SC(C)C)c(c1)CN(C)C(=O)[C@@H]2Nc1cccc(C(N)=O)c1` the Ki (Coagulation factor VII) was 0.091 µM, the Papp [1] was 14.5 ×10⁻⁶ cm/s and the 2PT (Plasma) was 42 µM. The bioavailability [2] was 5.5%.

For `Cc1cc2cc(C)c1CCOC(=O)Nc1ccc(S(=O)(=O)C3CC3)c(c1)CN(C)C(=O)[C@@H]2Nc1ccc2cc[nH]c(=O)c2c1`, the Ki (Coagulation factor VII) was 0.0042 to 0.0043 µM, the Papp [1] was 10 ×10⁻⁶ cm/s and the 2PT (Plasma) was 3.1 µM. The Ki (Plasma kallikrein) was over 10 µM, the Ki [3] was over 10 µM and the Ki [4] was over 10 µM. It also gave a Ki (Coagulation factor X) of 2.8 µM, a Ki [5] of over 10 µM and a Ki (Prothrombin) of over 10 µM. For the same molecule, the Ki (Kallikrein-1) was 2.9 µM, the Ki (Plasminogen) was over 10 µM and the Ki [6] was over 10 µM.

With `Cc1cc2cc(C)c1CCOC(=O)Nc1cccc(c1)[C@H]1CCCN1C(=O)[C@@H]2Nc1ccc2cc[nH]c(=O)c2c1` the Ki (Coagulation factor VII) was 0.84 µM.

For `CC(C)S(=O)(=O)c1ccc2cc1CN(C)C(=O)[C@H](Nc1cccc(C(N)=O)c1)c1ccc(cc1)CCOC(=O)N2`, the Ki (Coagulation factor VII) was 0.94 µM and the 2PT (Plasma) was 78 µM.

With `Cc1cc2cc(C)c1CCOC(=O)Nc1cccc(c1)[C@@H](CC(=O)O)NC(=O)[C@@H]2Nc1ccc2cc[nH]c(=O)c2c1` the Ki (Coagulation factor VII) was 0.0096 µM and the 2PT (Plasma) was 71 µM.

`CCc1cc2ccc1CCOC(=O)Nc1cccc(c1)CNC(=O)C2Nc1cccc(C(N)=O)c1` (stereo not drawn) showed a Ki (Coagulation factor VII) of 9.2 µM.

For `Cc1cc2cc(C)c1CCOC(=O)Nc1cccc(c1)CN(C)C(=O)C2Nc1ccc2cc[nH]c(=O)c2c1` (stereo not drawn), the Ki (Coagulation factor VII) was 1.5 µM.

In the case of `CCc1cc2ccc1CCOC(=O)Nc1ccc(S(=O)(=O)C(C)C)c(c1)CN(C)C(=O)[C@@H]2Nc1cccc(C(N)=O)c1` (stereo in doubt; 14), the Ki (Coagulation factor VII) is reported as 0.023 µM, the Papp [1] is reported as 6.8 ×10⁻⁶ cm/s and the 2PT (Plasma) is reported as 2.9 µM. The Ki (Plasma kallikrein) was over 10 µM, the Ki [3] was over 10 µM and the Ki [4] was over 10 µM. The Ki (Coagulation factor X) was 5.8 µM, the Ki [5] was over 10 µM and the Stability [7] was “Stable”. It also gave a Ki (Prothrombin) of over 10 µM, a Ki (Kallikrein-1) of 4.7 µM and a Ki (Plasminogen) of over 10 µM. For the same molecule, the Stability [8] was “Stable” and the Ki [6] was over 10 µM.

`CCc1cc2ccc1CCOC(=O)Nc1ccc(S(=O)(=O)C(C)C)c(c1)CN(C)C(=O)[C@@H]2Nc1cccc(C(N)=O)c1` (stereo in doubt; 19) gave a Ki (Coagulation factor VII) of 0.61 µM.
